Test results: US10131642B1, “Aldosterone synthase inhibitors” (Boehringer Ingelheim International GmbH, priority 2015, dated 2018)
Blank lines part the entries; values can stand above or below the compound they belong to.

Columns and labels:
[1] = molecular target: cortisol synthase (CYP11B1) (Macaca fascicularis, UniProt A0A2K5ULY1); assay: Inhibition of cortisol synthesis (cynomolgus adrenal mitochondria, cortisol by mass spectrometry); format: biochemical, cynomolgus monkey; conditions: cynomolgus adrenal gland mitochondria, 11-deoxycortisol as substrate, cortisol measured as product; read-out: CYP11B1 Inhibition IC50
Procedure, shortened: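 Cynomolgus adrenal mitochondria supplied CYP11B1 (150 units) with 11-deoxycortisol as substrate, plus NADPH; cortisol product measured by mass spectrometry. Activity expressed as % of compound-free NADPH control across compound concentrations; IC50 from 4-parameter logistic fit.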

[2] = molecular target: T1, aldosterone synthase (CYP11B2) (Macaca fascicularis, UniProt A0A2K5UPL9); assay: Inhibition of aldosterone synthase (cynomolgus adrenal mitochondria, aldosterone by mass spectrometry); format: biochemical, cynomolgus monkey; conditions: cynomolgus adrenal gland mitochondria, 2 μM corticosterone substrate, 90 minutes at 37° C.
T1 construct: cynomolgus adrenal gland mitochondria as the source of aldosterone synthase (CYP11B2); from tissue; host or cells: cynomolgus monkey adrenal gland mitochondria
T1 sequence (A0A2K5UPL9 1-503): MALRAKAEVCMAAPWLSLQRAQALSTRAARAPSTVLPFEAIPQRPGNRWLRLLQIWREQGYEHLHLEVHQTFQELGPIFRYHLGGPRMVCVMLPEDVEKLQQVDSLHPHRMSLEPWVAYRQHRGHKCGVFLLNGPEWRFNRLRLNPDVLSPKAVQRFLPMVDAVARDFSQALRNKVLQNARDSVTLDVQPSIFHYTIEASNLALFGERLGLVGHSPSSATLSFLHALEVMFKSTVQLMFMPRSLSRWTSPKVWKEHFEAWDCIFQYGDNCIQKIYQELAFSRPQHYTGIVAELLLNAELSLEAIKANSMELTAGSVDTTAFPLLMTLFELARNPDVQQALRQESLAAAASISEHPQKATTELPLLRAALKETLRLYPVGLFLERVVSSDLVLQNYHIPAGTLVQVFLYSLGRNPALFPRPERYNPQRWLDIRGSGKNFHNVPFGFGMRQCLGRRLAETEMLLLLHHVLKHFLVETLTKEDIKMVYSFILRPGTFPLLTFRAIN
Procedure, shortened: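 Cynomolgus adrenal mitochondria (50 units CYP11B2 activity) with 2 μM corticosterone in 100 mM potassium phosphate pH 7.4, 1% DMSO. Started with 1 mM NADPH, 90 min at 37° C. Aldosterone measured by mass spectrometry; IC50 from 4-parameter logistic fit, NADPH-free reactions as blank.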

SMILES: CN(C)C(=O)CCOc1ccc(Cc2onc3c2C(=O)CC(C)(C)C3)cc1 [Cpd 82, 3-[4-(6,6-Dimethyl-4-oxo-4,5,6,7-tetrahydro-benzo[c]isoxazol-3-ylmethyl)-phenoxy]-N,N-dimethyl-propionamide]
IC50 [1]: 4 µM
IC50 [2]: 0.044 µM

SMILES: CC1(C)CC(=O)c2c(noc2Cc2ccc(OCCC(=O)N3CC[C@@H](O)C3)cc2)C1 [Cpd 83, 3-{4-[3-((R)-3-Hydroxy-pyrrolidin-1-yl)-3-oxo-propoxy]-benzyl}-6,6-dimethyl-6,7-dihydro-5H-benzo[c]isoxazol-4-one]
IC50 [1]: 2.7 µM
IC50 [2]: 0.069 µM

SMILES: CC1(C)CC(=O)c2c(noc2Cc2ccc(OCCCC(=O)N3CC[C@@H](O)C3)cc2)C1 [Cpd 84, 3-{4-[4-((R)-3-Hydroxy-pyrrolidin-1-yl)-4-oxo-butoxy]-benzyl}-6,6-dimethyl-6,7-dihydro-5H-benzo[c]isoxazol-4-one]
IC50 [1]: 6.9 µM
IC50 [2]: 0.069 µM

SMILES: CC1(C)CC(=O)c2c(noc2Cc2ccc(OCCS(C)(=N)=O)cc2)C1 (stereo not drawn) [Cpd 85, 3-[4-(2-Methanesulfoximine-ethoxy)-benzyl]-6,6-dimethyl-6,7-dihydro-5H-benzo[c]isoxazol-4-one]
IC50 [1]: 6.5 µM
IC50 [2]: 0.056 µM

SMILES: CC1(C)Cc2noc(Cc3ccc(OCCCS(C)(=O)=O)cc3)c2C(=O)O1 [Cpd 90, 3-[4-(3-Methanesulfonyl-propoxy)-benzyl]-6,6-dimethyl-6,7-dihydro-pyrano[4,3-c]isoxazol-4-one]
IC50 [1]: 4.6 µM
IC50 [2]: 0.016 µM

SMILES: CC1(C)Cc2noc(Cc3ccc(OCCS(C)(=O)=O)cc3)c2C(=O)O1 [Cpd 91, 3-[4-(2-Methanesulfonyl-ethoxy)-benzyl]-6,6-dimethyl-6,7-dihydro-pyrano[4,3-c]isoxazol-4-one]
IC50 [1]: 21 µM
IC50 [2]: 0.12 µM

SMILES: CC1(C)Cc2noc(CC3CCOCC3)c2C(=O)O1 [Cpd 92, 6,6-Dimethyl-3-(tetrahydro-pyran-4-ylmethyl)-6,7-dihydro-pyrano[4,3-c] isoxazol-4-one]
IC50 [1]: 69 µM
IC50 [2]: 0.34 µM

SMILES: CN1CCN(C(=O)c2ccc(Cc3onc4c3C(=O)OC(C)(C)C4)cc2)CC1=O [Cpd 97, 6,6-Dimethyl-3-[4-(4-methyl-3-oxo-piperazine-1-carbonyl)-benzyl]-6,7-dihydro-pyrano[4,3-c]isoxazol-4-one]
IC50 [1]: 11 µM
IC50 [2]: 0.17 µM

Continued, values first:

IC50 [1]: 77 µM
IC50 [2]: 0.22 µM
SMILES: CC1(C)Cc2noc(Cc3ccc(C#N)cc3)c2C(=O)O1 [Cpd 87, 4-(6,6-Dimethyl-4-oxo-6,7-dihydro-4H-pyrano[4,3-c]isoxazol-3-ylmethyl)-benzonitrile]

IC50 [1]: 25 µM
IC50 [2]: 0.19 µM
SMILES: CC1(C)Cc2noc(Cc3ccc(F)cc3)c2C(=O)O1 [Cpd 88, 3-(4-Fluoro-benzyl)-6,6-dimethyl-6,7-dihydro-pyrano[4,3-c]isoxazol-4-one]

IC50 [1]: 9.8 µM
IC50 [2]: 0.027 µM
SMILES: COc1ccc(Cc2onc3c2C(=O)OC(C)(C)C3)cc1 [Cpd 89, 3-(4-Methoxy-benzyl)-6,6-dimethyl-6,7-dihydro-pyrano[4,3-c]isoxazol-4-one]

IC50 [1]: 2.6 µM
IC50 [2]: 0.073 µM
SMILES: CC1(C)Cc2noc(Cc3ccc(C(=O)N4CC[C@@H](O)C4)cc3)c2C(=O)O1 [Cpd 93, 3-[4-((R)-3-Hydroxy-pyrrolidine-1-carbonyl)-benzyl]-6,6-dimethyl-6,7-dihydro-pyrano[4,3-c]isoxazol-4-one]

IC50 [1]: 4.3 µM
IC50 [2]: 0.042 µM
SMILES: CC1(C)Cc2noc(Cc3ccc(C(=O)NCCS(C)(=O)=O)cc3)c2C(=O)O1 [Cpd 94, 4-(6,6-Dimethyl-4-oxo-6,7-dihydro-4H-pyrano[4,3-c]isoxazol-3-ylmethyl)-N-(2-methanesulfonyl-ethyl)-benzamide]

IC50 [1]: 16 µM
IC50 [2]: 0.071 µM
SMILES: CC1(C)Cc2noc(Cc3ccc(C(N)=O)cc3)c2C(=O)O1 [Cpd 95, 4-(6,6-Dimethyl-4-oxo-6,7-dihydro-4H-pyrano[4,3-c]isoxazol-3-ylmethyl)-benzamide]

IC50 [1]: 10 µM
IC50 [2]: 0.073 µM
SMILES: CN(CCO)C(=O)c1ccc(Cc2onc3c2C(=O)OC(C)(C)C3)cc1 [Cpd 96, 4-(6,6-Dimethyl-4-oxo-6,7-dihydro-4H-pyrano[4,3-c]isoxazol-3-ylmethyl)-N-(2-hydroxy-ethyl)-N-methyl-benzamide]
